Data on 16 compounds can be found in patent US20170334927A1 (Shanghai Sun-sail Pharmaceutical Science & Technology Co., …, priority 2014, published 2017).

One series in a line: physchem. The series is classed as physicochemical. The conditions noted are these: for solubility at 3 days: pH 1.2, simulated gastric fluid, thermodynamic from solid. The procedure:
3-5 mg of compound to be tested was added to 0.5 mL of aqueous HCl solution (pH=1.2) and the mixture was shaken for three days on a shaker; the sample was centrifuged for 5 min at 10,000 rpm in a centrifuge; a volumetric flask (50 mL) was loaded with 2 mL of supernatant and water was added to a volume at the graduation mark to prepare a sample solution; and 2.6 mg of sample was precisely weighed into a volumetric flask (50 mL), an appropriate amount of methanol was added to dissolve the sample, and water was added to a volume at the graduation mark and shaken well to give a control sample solution. 20 μL of sample solution and control sample solution were each injected, and tested by liquid chromatography. The solubility was calculated as follows:
Solubility (mg/mL)=C (control)*25*A (sample)/A (control)
C (control): concentration of the control sample
A (sample): peak area of the liquid chromatogram of the sample solution
A (control): peak area of the liquid chromatogram of the control sample solution

In series [1] the test system is Mycobacterium tuberculosis H37Rv. Kind of series: Activity test for Mycobacterium tuberculosis (MIC, H37Rv). The conditions noted are these: for anti Mycobacterium tuberculosis activity (MIC against H37Rv), times of that of PA-824: relative to PA-824; for anti Mycobacterium tuberculosis activity (MIC against H37Rv), times of that of ethambutol: relative to ethambutol; for MIC: Mycobacterium tuberculosis H37Rv, liquid medium, 37° C., read-out: Minimum inhibitory concentration against H37Rv. It counts as cell-based. The procedure: The tested strain H37Rv was transferred to liquid medium and cultured for 2 weeks at 37° C.; a small amount of the cultured bacterial solution was pipetted and placed in 4 mL of liquid medium; 10-20 sterile glass beads with a diameter of 2-3 mm were added; the mixture was shaken for 20-30 s and left to sediment for 10-20 min; the supernatant of the bacterial suspension was pipetted and adjusted to a turbidity of 1 MCF (equivalent to 1×10^7 CFU/mL) with the liquid medium for use. Each drug was dissolved to 1 mg/mL with an appropriate amount of DMSO and filtered with a 0.22 μm filter. Then, the solution was diluted to a desired experimental concentration with the liquid medium. The final concentrations of the tested drugs were set as follows: 0.001 μg/mL, 0.002 μg/mL, 0.0039 μg/mL, 0.0078 μg/mL, […], 0.03125 μg/mL, 0.0625 μg/mL, 0.125 μg/mL, 0.25 μg/mL, 0.5 μg/mL and 1 μg/mL, a total of 11 concentration gradients. 100 μL of each of the above-mentioned drug solutions was added to a 96-well microwell plate, then 100 μL bacterial solution with a concentration of 1 mg/mL was added to allow the drug concentration to reach the final set concentration, and cultured at 37° C. Three groups in parallel were set for each drug dilution with inoculation amounts of 100%, 10% and 1%, respectively, while no drug was added to the control group.

Series [2] can be described thus: Drug metabolism test (pharmacokinetics, oral, mice). The series is classed as in vivo, ICR mice. The conditions noted are these: 10 mg/kg; for AUC(0-inf) / AUC(0-t) / Cmax / MRT / Tmax / half-life: male, ICR, mouse, po, orally (intragastric), plasma. The procedure: 18 healthy male ICR mice with a body weight of 18-22 g were administered drugs by intragastric administration, with an administration dose of 10 mg/kg and an administration volume of 10 mL/kg, respectively. These mice were fasted for 12 h before the test and had free access to drinking water. These mice were fed 2 h after administration uniformly. 0.3 mL of blood was taken from the postocular venous plexus of a mouse at the set time points, placed in a heparinized test tube and centrifuged for 10 min at 3000 rpm; and plasma was separated and frozen in a refrigerator at −20° C. When measured, the sample was treated through the method for treating the plasma sample, and the drug concentration in plasma was determined by LC-MS/MS and the pharmacokinetic parameters of the drug were calculated.

Each structure is given as a SMILES string. ≈ marks a conversion by molar mass, not a printed value. Where only a bound is given, the exact number is not on record here.

One may read the solubility as how much of the substance goes into solution per volume. In general, AUC(0-inf) refers to the area under the concentration-time curve extrapolated to infinity. One may read the AUC(0-t) as the area under the concentration-time curve up to a stated or last time point. Higher therefore signals more exposure. Broadly, the Cmax is the peak of the concentration-time curve. As a reminder, the MRT is a mean duration of stay, worked out from the concentration-time curve. In general, Tmax refers to the time from dosing to the highest level. What is called half-life is the time in which the quantity being followed falls by half. The low end stands for fast loss, the high end for slow loss. In “physchem”, `O=[N+]([O-])c1cn2c(n1)OC[C@@H](NCc1ccc(N3CCC(Oc4ccc(OC(F)(F)F)cc4)CC3)nc1)C2` [Compound 1, (S)-2-nitro-N-((6-(4-(4-(trifluoromethoxy)phenoxy)piperidin-1-yl)pyrid-3-yl)methyl)-6,7-dihydro-5H-imidazo[2,1-b][1,3]oxazin-6-amine] registered a solubility at 3 days of 784 µg/mL (≈ 1470 µM). In series [1], the “anti Mycobacterium tuberculosis activity (MIC against H37Rv), times of that of PA-824” value amounted to 8 times; the “anti Mycobacterium tuberculosis activity (MIC against H37Rv), times of that of ethambutol” value was 64 times; the MIC was determined as 0.0078 µg/mL (≈ 0.0146 µM). In series [2], this compound gave a total exposure AUC(0-inf) of 32300 ng·h/mL, an AUC(0-t) of 31300 ng·h/mL, a Cmax of 2670 ng/mL and an MRT of 6.64 h. In series [2], the time to peak (Tmax) came out at 2.33 h and the half-life is 4.76 h. For the same compound, the “pharmacokinetic properties (in words)” value in series [2] (orally, judgement on Table 6) is listed as “excellent”.
On to `O=[N+]([O-])c1cn2c(n1)OC[C@@H](NCc1ccc(N3CCC(Oc4ccc(OC(F)(F)F)cc4)C(F)C3)nc1)C2` (stereo partly drawn) [Compound 3, (6S)—N-((6-(3-fluoro-4-(4-(trifluoromethoxy)phenoxy)piperidin-1-yl)pyrid-3-yl)methyl)-2-nitro-6,7-dihydro-5H-imidazo[2,1-b][1,3]oxazin-6-amine], for which the MIC in series [1] amounted to 0.0156 µg/mL (≈ 0.0282 µM).
One may read the Solubility as the dissolved amount per volume that the medium holds. A low value points to a poorly soluble substance. `O=[N+]([O-])c1cn2c(n1)OC[C@@H](NCc1ccc(N3CCN(c4ccc(OC(F)(F)F)cc4)CC3)nc1)C2` [Compound 4, (S)-2-nitro-N-((6-(4-(4-(trifluoromethoxy)phenyl)piperazin-1-yl)pyrid-3-yl)methyl)-6,7-dihydro-5H-imidazo[2,1-b][1,3]oxazin-6-amine] yielded a Solubility in the series “physchem” (3 days, pH 1.2) of 1257.2 µg/mL (≈ 2420 µM). The same compound registered a solubility at 3 days in “physchem” of over 1000 µg/mL. Also, in series [1], the “anti Mycobacterium tuberculosis activity (MIC against H37Rv), times of that of PA-824” value turned out to be 32 times; the “anti Mycobacterium tuberculosis activity (MIC against H37Rv), times of that of ethambutol” value is listed as 256 times; the MIC was 0.00195 µg/mL (≈ 0.00375 µM). In series [2], the total exposure AUC(0-inf) came to 17300 ng·h/mL, the AUC(0-t) turned out to be 17200 ng·h/mL, the peak level (Cmax) was 1780 ng/mL and the mean residence time MRT came out at 5.56 h. Further, in series [2], the Tmax amounted to 2 h and the half-life is 3.38 h.
Take `CC1CN(c2ccc(CN[C@@H]3COc4nc([N+](=O)[O-])cn4C3)cn2)CCN1c1ccc(OC(F)(F)F)cc1` (stereo partly drawn) [Compound 5, (3S)—N-((6-(3-methyl-4-(4-(trifluoromethoxy)phenyl)piperazin-1-yl)pyrid-3-yl)methyl)-7-nitro-3,4-dihydro-2H-imidazo[2,1-b][1,3]oxazin-3-amine]: in series [1], the “anti Mycobacterium tuberculosis activity (MIC against H37Rv), times of that of PA-824” value worked out at 16 times; the “anti Mycobacterium tuberculosis activity (MIC against H37Rv), times of that of ethambutol” value came to 128 times; the MIC is 0.0039 µg/mL (≈ 0.00731 µM).
For `CC1CN(c2ccc(OC(F)(F)F)cc2)CCN1c1ccc(CN[C@@H]2COc3nc([N+](=O)[O-])cn3C2)cn1` (stereo partly drawn) [Compound 6, (3S)—N-((6-(2-methyl-4-(4-(trifluoromethoxy)phenyl)piperazin-1-yl)pyrid-3-yl)methyl)-7-nitro-3,4-dihydro-2H-imidazo[2,1-b][1,3]oxazin-3-amine], in series [1], the “anti Mycobacterium tuberculosis activity (MIC against H37Rv), times of that of PA-824” value was found to be 32 times; the “anti Mycobacterium tuberculosis activity (MIC against H37Rv), times of that of ethambutol” value is on record as 256 times; the MIC is 0.00195 µg/mL (≈ 0.00366 µM).
`O=[N+]([O-])c1cn2c(n1)OC[C@@H](NCc1ccc(N3CC4CN(c5ccc(OC(F)(F)F)cc5)CC4C3)nc1)C2` (stereo partly drawn) [Compound 11, (6S)-2-nitro-N-((6-(5-(4-(trifluoromethoxy)phenyl)hexahydropyrrolo[3,4-c]pyrrol-2(1H)-yl)pyrid-3-yl)methyl)-6,7-dihydro-5H-imidazo[2,1-b][1,3]oxazin-6-amine]: the MIC in series [1] was 0.0312 µg/mL (≈ 0.0573 µM).
`O=[N+]([O-])c1cn2c(n1)OC[C@@H](NCc1ccc(N3CCC4(CC3)CN(c3ccc(OC(F)(F)F)cc3)C4)nc1)C2` [Compound 13, (S)-2-nitro-N-((6-(2-(4-(trifluoromethoxy)phenyl)-2,7-diazaspiro[3.5]nonan-7-yl)pyrid-3-yl)methyl)-6,7-dihydro-5H-imidazo[2,1-b][1,3]oxazin-6-amine]: the MIC in series [1] is 0.0156 µg/mL (≈ 0.0279 µM).
Consider `O=[N+]([O-])c1cn2c(n1)OC[C@@H](NCc1ccc(N3C4CCC3CC(Oc3ccc(OC(F)(F)F)cc3)C4)nc1)C2` (stereo partly drawn) [Compound 14, (6S)-2-nitro-N-((6-(3-(4-(trifluoromethoxy)phenoxy)-8-azabicyclo[3.2.1]octan-8-yl)pyrid-3-yl)methyl)-6,7-dihydro-5H-imidazo[2,1-b][1,3]oxazin-6-amine], for which, in series [1], the “anti Mycobacterium tuberculosis activity (MIC against H37Rv), times of that of PA-824” value is on record as 8 times; the “anti Mycobacterium tuberculosis activity (MIC against H37Rv), times of that of ethambutol” value is listed as 64 times; the MIC amounted to 0.0078 µg/mL (≈ 0.0139 µM).
As to `O=[N+]([O-])c1cn2c(n1)OC[C@@H](NCc1cnc(N3CCC(Oc4ccc(OC(F)(F)F)cc4)CC3)nc1)C2` [Compound 15], the MIC in series [1] was determined as 0.0312 µg/mL (≈ 0.0584 µM).
The same measure, in the same setting: the value for `O=[N+]([O-])c1cn2c(n1)OC[C@@H](NCc1cnc(N3CC4CN(c5ccc(OC(F)(F)F)cc5)CC4C3)nc1)C2` (stereo partly shown) [Compound 25] was 0.0156 µg/mL (≈ 0.0285 µM); that for `O=[N+]([O-])c1cn2c(n1)OC[C@@H](NCc1cnc(N3C4CCC3CC(Oc3ccc(OC(F)(F)F)cc3)C4)nc1)C2` (stereo partly shown) [Compound 28] was 0.0156 µg/mL (≈ 0.0278 µM).
Regarding `COc1nc(N2CCN(c3ccc(OC(F)(F)F)cc3)CC2)ncc1CN[C@@H]1COc2nc([N+](=O)[O-])cn2C1` [Compound 38, (S)—N-((4-methoxy-2-(4-(4-(trifluoromethoxy)phenyl)piperazin-1-yl)pyrimidin-5-yl)methyl)-2-nitro-6,7-dihydro-5H-imidazo[2,1-b][1,3]oxazin-6-amine], the MIC in series [1] was 0.0156 µg/mL (≈ 0.0283 µM).
On to `N#Cc1nc(N2CCN(c3ccc(OC(F)(F)F)cc3)CC2)ncc1CN[C@@H]1COc2nc([N+](=O)[O-])cn2C1` [Compound 40, (S)-5-(((2-nitro-6,7-dihydro-5H-imidazo[2,1-b][1,3]oxazin-6-yl)amino)methyl)-2-(4-(4-(trifluoromethoxy)phenyl)piperazin-1-yl)pyrimidine-4-carbonitrile], for which, in series [1], the “anti Mycobacterium tuberculosis activity (MIC against H37Rv), times of that of PA-824” value is given as 8 times; the “anti Mycobacterium tuberculosis activity (MIC against H37Rv), times of that of ethambutol” value worked out at 64 times; the MIC was 0.0078 µg/mL (≈ 0.0143 µM).
Take `O=[N+]([O-])c1cn2c(n1)OC[C@@H](NCc1cnc(N3CCN(c4ccc(OC(F)(F)F)cc4)CC3)nc1C(F)(F)F)C2` [Compound 41, (S)-2-nitro-N-((2-(4-(4-(trifluoromethoxy)phenyl)piperazin-1-yl)-4-(trifluoromethyl)pyrimidin-5-yl)methyl)-6,7-dihydro-5H-imidazo[2,1-b][1,3]oxazin-6-amine]: in series [1], the MIC stood at 0.0312 µg/mL (≈ 0.0531 µM).
`CN(Cc1cnc(N2CCN(c3ccc(OC(F)(F)F)cc3)CC2)nc1)[C@@H]1COc2nc([N+](=O)[O-])cn2C1` [Compound 44, (S)—N-methyl-2-nitro-N-((2-(4-(4-(trifluoromethoxy)phenyl)piperazin-1-yl)pyrimidin-5-yl)methyl)-6,7-dihydro-5H-imidazo[2,1-b][1,3]oxazin-6-amine]: in series [1], the “anti Mycobacterium tuberculosis activity (MIC against H37Rv), times of that of PA-824” value is 32 times; the “anti Mycobacterium tuberculosis activity (MIC against H37Rv), times of that of ethambutol” value is 256 times; the MIC is 0.00195 µg/mL (≈ 0.00365 µM).
Regarding `CC[C@@H](CO)NCCN[C@@H](CC)CO` [Ethambutol, reference compound], the MIC in series [1] was determined as 0.5 µg/mL (≈ 2.45 µM).
